Tests used:
[1] = test system: WT mice subjected to photothrombotic stroke in the motor cortex; assay: Infarct volume after photothrombotic stroke, intranasal treatment; format: in vivo, mouse; conditions: intranasal C3a daily days 7-21 post-stroke vs PBS; P=0.429
Protocol: Cortical photothrombosis was induced using the Rose Bengal method (Lee et al., 2007; Watson et al., 1985) with some modifications. Anesthesia was induced with isoflurane (Forene®, Abbott) in air and oxygen (1:1) initially at 5% and reduced to 2.5% during the surgical procedure. Body temperature was monitored by a rectal probe and maintained at 37° C. using a homeothermic control unit (Harvard Apparatus). Anesthetized mice were placed in a stereotaxic frame, the skull was exposed through a midline scalp incision and Rose Bengal (200 μl, 10 mg/ml solution in sterile saline, Sigma) was injected intraperitoneally. […] Mice were provided with moist mashed food placed on the floor of the home cage and their weight was monitored daily for 7 days after surgery. […]
Purified human C3a peptide (Complement Technologies) was diluted in sterile phosphate buffered saline (PBS) to a concentration of 200 nM and a total of 20 μl (10 μl/nostril; corresponding to approximately 1.13 μg/kg body weight) of peptide solution or PBS was given intranasally to awake, hand-restrained mice held in a supine position. […] For the assessment of potential systemic anaphylactic response due to intranasal C3a inoculation, body temperature was monitored using a rectal temperature probe (Harvard Apparatus) inserted approximately 4 mm into the rectum of awake mice restrained by the scruff. […]

[2] = test system: adult mice with global cerebral ischemia; conditions: single intraventricular injection of C3a 30 min prior to training, assessed 24 h later; cited from earlier work
serum carboxypeptidases = conditions: systemically administered C3a; cited from earlier work

C3a: Purified human C3a peptide (Complement Technologies), C3a receptor agonist, amino acid sequence SEQ ID NO: 1
infarct volume [1]: no effect on infarct volume
amnesia induced by global cerebral ischemia [2]: ameliorate amnesia
stability in serum (serum carboxypeptidases): rapid inactivation by serum carboxypeptidases
